Measured values: patent publication US12454529B2, “Piperazine cyclic ureas” (SIRONAX LTD., priority 2020, dated 2025)

system: HT-29 cells; test: HT-29 cell necrosis/necroptosis inhibition (TNF-α + SMAC mimetic + zVAD-FMK; CellTiter-Glo cell viability); format: cell-based; details: Homo sapiens, HT-29, 20 h, read-out: EC50 (Cell activity; Necrosis/Necroptosis Inhibitory Activity, Compounds 1-142)
Outline: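 Necroptosis was driven by TNF-α 10 ng/ml plus SMAC mimetic 6 μM and zVAD-FMK 10 μM in serum-free medium, with compounds as a 10-point threefold titration. After 20 h at 37 °C, ATP-based luminescence was read; EC50 values are geometric means of duplicate curves.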

Question: Which EC50 does the source give for Cn1cnn(-c2nc(N3CCN(C(=O)N4N=CC[C@H]4c4cc(F)cc(C#N)c4)CC3)ncc2F)c1=O [Compound 140, (S)-3-fluoro-5-(1-(4-(5-fluoro-4-(4-methyl-5-oxo-4,5-dihydro-1H-1,2,4-triazol-1-yl)pyrimidin-2-yl)piperazine-1-carbonyl)-4,5-dihydro-1H-pyrazol-5-yl)benzonitrile] here?
Answer: The EC50 was 0.0001 to 0.1 µM.

same assay, conditions: Homo sapiens; HT-29 cells, TNF-α 10 ng/ml + SMAC mimetic 6 μM + zVAD-FMK 10 μM, 20 hours; geometric mean, 10 points in duplicate; read-out: EC50 (Cell activity; Necrosis/Necroptosis Inhibitory Activity, Compounds 1-142)

Question: With Cn1ncc(Cl)c1-c1nc(N2CCN(C(=O)N3N=CC[C@H]3c3cc(F)cc(F)c3)CC2)ncc1F [Compound 68, (S)-(4-(4-(4-chloro-1-methyl-1H-pyrazol-5-yl)-5-fluoropyrimidin-2-yl)piperazin-1-yl)(5-(3,5-difluorophenyl)-4,5-dihydro-1H-pyrazol-1-yl)methanone] as the compound, how does the EC50 read?
Answer: The EC50 was 0.0001 to 0.1 µM.

Question: How did the EC50 turn out when N#Cc1cccc([C@@H]2CC=NN2C(=O)N2CCN(c3ncc(F)c(-n4cc(C(N)=O)cn4)n3)CC2)c1 [Compound 109, (S)-1-(2-(4-(5-(3-cyanophenyl)-4,5-dihydro-1H-pyrazole-1-carbonyl)piperazin-1-yl)-5-fluoropyrimidin-4-yl)-1H-pyrazole-4-carboxamide] was run?
Answer: The EC50 was 0.0001 to 0.1 µM.

Question: Which EC50 does the source give for N#Cc1cn(-c2ccnc(N3CCN(C(=O)N4N=CC[C@H]4c4cc(F)cc(F)c4)CC3)n2)cn1 [Compound 2, (S)-1-(2-(4-(5-(3,5-difluorophenyl)-4,5-dihydro-1H-pyrazole-1-carbonyl)piperazin-1-yl)pyrimidin-4-yl)-1H-imidazole-4-carbonitrile] here?
Answer: Its EC50 is 0.0001 to 0.1 µM.

Question: Which EC50 does the source give for O=C(N1CCN(c2ncc(F)c(-c3ccc[nH]c3=O)n2)CC1)N1N=CC[C@H]1c1cc(F)cc(F)c1 [Compound 87, (S)-3-(2-(4-(5-(3,5-difluorophenyl)-4,5-dihydro-1H-pyrazole-1-carbonyl)piperazin-1-yl)-5-fluoropyrimidin-4-yl)pyridin-2(1H)-one] here?
Answer: Its EC50 is 0.0001 to 0.1 µM.

Question: O=C(N1CCN(c2ncc(F)c(-c3n[nH]nc3I)n2)CC1)N1N=CC[C@H]1c1cc(F)cc(F)c1 [Compound 20, (S)-(5-(3,5-difluorophenyl)-4,5-dihydro-1H-pyrazol-1-yl)(4-(5-fluoro-4-(5-iodo-1H-1,2,3-triazol-4-yl)pyrimidin-2-yl)piperazin-1-yl)methanone] was tested. Which EC50 did it give?
Answer: Its EC50 is 0.0001 to 0.1 µM.

same assay, conditions: Homo sapiens; HT-29 cells, TNF-α 10 ng/ml + SMAC mimetic 6 μM + zVAD-FMK 10 μM, 20 hours; geometric mean, 10 points in duplicate; read-out: EC50 (Cell activity; Necrosis/Necroptosis Inhibitory Activity, Compounds 143-323)

Question: Which EC50 does the source give for Cc1cnn(C)c1-c1nc(N2CCN(C(=O)N3N=CC[C@H]3c3cc(F)cc(C#N)c3)CC2)sc1CO [Compound 266, (S)-3-(1-(4-(4-(1,4-dimethyl-1H-pyrazol-5-yl)-5-(hydroxymethyl)thiazol-2-yl)piperazine-1-carbonyl)-4,5-dihydro-1H-pyrazol-5-yl)-5-fluorobenzonitrile] here?
Answer: Its EC50 is 1 to 10 µM.

Question: How did the EC50 turn out when Cc1cnc(C2CC=NN2C(=O)N2CCN(c3ncc(F)c(-c4nnc(C)s4)n3)CC2)s1 (centres unmarked) [Compound 316] was run?
Answer: The EC50 was 0.0001 to 0.1 µM.

Question: For Cc1nc(C)n(-c2nc(N3CCN(C(=O)N4N=CC[C@@H]4c4cc(F)cc(F)c4F)CC3)ncc2F)n1 [Compound 265, (R)-(4-(4-(3,5-dimethyl-1H-1,2,4-triazol-1-yl)-5-fluoropyrimidin-2-yl)piperazin-1-yl)(5-(2,3,5-trifluorophenyl)-4,5-dihydro-1H-pyrazol-1-yl)methanone], which EC50 is on record?
Answer: Its EC50 is 0.1 to 1 µM.

Question: Which EC50 does the source give for CCn1c(C)nn(-c2nc(N3CCN(C(=O)N4N=CC[C@H]4c4cc(F)cc(C#N)c4)CC3)ncc2F)c1=O [Compound 181, (S)-3-(1-(4-(4-(4-ethyl-3-methyl-5-oxo-4,5-dihydro-1H-1,2,4-triazol-1-yl)-5-fluoropyrimidin-2-yl)piperazine-1-carbonyl)-4,5-dihydro-1H-pyrazol-5-yl) fluorobenzonitrile] here?
Answer: The EC50 was 0.0001 to 0.1 µM.

Question: Cc1c(N)nn(C)c1-c1ccnc(N2CCN(C(=O)N3N=CC[C@H]3c3cc(F)cc(C#N)c3)CC2)n1 [Compound 154, (S)-3-(1-(4-(4-(3-amino-1,4-dimethyl-1H-pyrazol-5-yl)pyrimidin-2-yl)piperazine-1-carbonyl)-4,5-dihydro-1H-pyrazol-5-yl)-5-fluorobenzonitrile] was tested. Which EC50 did it give?
Answer: The EC50 was 0.0001 to 0.1 µM.

Question: For CCS(=O)(=O)c1c(C)nn(-c2nc(N3CCN(C(=O)N4N=CC[C@H]4c4cc(F)cc(C#N)c4)CC3)ncc2F)c1C [Compound 205, (S)-3-(1-(4-(4-(4-(ethylsulfonyl)-3,5-dimethyl-1H-pyrazol-1-yl)-5-fluoropyrimidin-2-yl)piperazine-1-carbonyl)-4,5-dihydro-1H-pyrazol-5-yl)-5-fluorobenzonitrile], which EC50 is on record?
Answer: Its EC50 is 0.0001 to 0.1 µM.

Question: How did the EC50 turn out when Cc1cnc(C2CC=NN2C(=O)N2CCN(c3nc(-c4c(C)cnn4C)ncc3F)CC2)s1 (centres unmarked) [Compound 145, (4-(2-(1,4-dimethyl-1H-pyrazol-5-yl)-5-fluoropyrimidin-4-yl)piperazin-1-yl)(5-(5-methylthiazol-2-yl)-4,5-dihydro-1H-pyrazol-1-yl)methanone] was run?
Answer: The EC50 was 0.0001 to 0.1 µM.

Question: CCn1ncnc1-c1nc(N2CCN(C(=O)N3N=CC[C@H]3c3cc(F)cc(C#N)c3)CC2)ncc1F [Compound 167, (S)-3-(1-(4-(4-(1-ethyl-1H-1,2,4-triazol-5-yl)-5-fluoropyrimidin-2-yl)piperazine-1-carbonyl)-4,5-dihydro-1H-pyrazol-5-yl)-5-fluorobenzonitrile] was tested. Which EC50 did it give?
Answer: Its EC50 is 0.0001 to 0.1 µM.

Question: How did the EC50 turn out when CCn1nc(C)n(-c2nc(N3CCN(C(=O)N4N=CC[C@H]4c4cc(F)cc(C#N)c4)CC3)ncc2F)c1=O [Compound 183, (S)-3-(1-(4-(4-(1-ethyl-3-methyl-5-oxo-1,5-dihydro-4H-1,2,4-triazol-4-yl)-5-fluoropyrimidin-2-yl)piperazine-1-carbonyl)-4,5-dihydro-1H-pyrazol-5-yl)-5-fluorobenzonitrile] was run?
Answer: Its EC50 is 0.0001 to 0.1 µM.

Question: Which EC50 does the source give for Cc1nn(-c2nc(N3CCN(C(=O)N4N=CC[C@H]4c4cc(F)cc(C#N)c4)CC3)ncc2F)c(C)c1S(C)(=O)=O [Compound 204, (S)-3-(1-(4-(4-(3,5-dimethyl-4-(methylsulfonyl)-1H-pyrazol-1-yl)-5-fluoropyrimidinyl)piperazine-1-carbonyl)-4,5-dihydro-1H-pyrazol-5-yl)-5-fluorobenzonitrile] here?
Answer: Its EC50 is 0.0001 to 0.1 µM.

Question: How did the EC50 turn out when Cc1nn(-c2ccnc(N3CCN(C(=O)N4N=CC[C@H]4c4cc(F)cc(C#N)c4)CC3)n2)c(C)c1Br [Compound 273, (S)-3-(1-(4-(4-(4-bromo-3,5-dimethyl-1H-pyrazol-1-yl)pyrimidinyl)piperazine-1-carbonyl)-4,5-dihydro-1H-pyrazol-5-yl)-5-fluorobenzonitrile] was run?
Answer: Its EC50 is 0.0001 to 0.1 µM.

Question: For Cn1nc(C(=O)O)nc1-c1nc(N2CCN(C(=O)N3N=CCC3c3cc(F)cc(F)c3)CC2)ncc1F (centres unmarked) [Compound 230, 5-(2-(4-(5-(3,5-difluorophenyl)-4,5-dihydro-1H-pyrazole-1-carbonyl)piperazin-1-yl)-5-fluoropyrimidin-4-yl)-1-methyl-1H-1,2,4-triazole-3-carboxylic acid], which EC50 is on record?
Answer: The EC50 was 0.1 to 1 µM.

Question: Cc1nn(-c2cc(N3CCN(C(=O)N4N=CC[C@H]4c4cc(F)cc(F)c4)CC3)ncn2)c(C)c1C(N)=O [Compound 281, (S)-1-(6-(4-(5-(3,5-difluorophenyl)-4,5-dihydro-1H-pyrazole-1-carbonyl)piperazin-1-yl)pyrimidin-4-yl)-3,5-dimethyl-1H-pyrazole-4-carboxamide] was tested. Which EC50 did it give?
Answer: Its EC50 is 0.0001 to 0.1 µM.

Question: For Cc1nc(C(F)F)nn1-c1nc(N2CCN(C(=O)N3N=CC[C@H]3c3cc(F)cc(C#N)c3)CC2)ncc1F [Compound 245, (S)-3-(1-(4-(4-(3-(difluoromethyl)-5-methyl-1H-1,2,4-triazol-1-yl)-5-fluoropyrimidinyl)piperazine-1-carbonyl)-4,5-dihydro-1H-pyrazol-5-yl)-5-fluorobenzonitrile], which EC50 is on record?
Answer: Its EC50 is 0.0001 to 0.1 µM.
